Experimental data: patent publication US11814445B2, “Cyclic polypeptides for PCSK9 inhibition” (Ra Pharmaceuticals, Inc., priority 2018, dated 2023)
Numbered stars: 1 amine (or outer) side, 2 acyl side, 3 side chain; on linkers, the order of the positions; unused ones are H or OH. Bridge positions count the residues as written; N and C are the ends. Square brackets hold non-standard residues; d marks the D form. Peptide text beside a SMILES is read from it. X6 = O=C([C@H](Cc1cccc(OCC=[*:3])c1)N[*:1])[*:2]; Phe(4-CF3) = N[C@@H](Cc1ccc(C(F)(F)F)cc1)C(=O)O; Phe(4-COOH) = N[C@@H](Cc1ccc(C(=O)O)cc1)C(=O)O; Trp(5-F) = N[C@@H](Cc1c[nH]c2ccc(F)cc12)C(=O)O; X1 = O=C(CCSCc1cccc(CSCCN[*:1])c1)[*:2]; mXylylene = c1cc(C[*:1])cc(C[*:2])c1; NMeY = CN[C@@H](Cc1ccc(O)cc1)C(=O)O; X5 = O=C(CN(CCCCC=[*:3])[*:1])[*:2]; X3 = O=C(CCSC/C=C/CSCCN[*:1])[*:2]; X4 = O=C(CN(CCCC=[*:3])[*:1])[*:2]; NMeF = CN[C@@H](Cc1ccccc1)C(=O)O; X7 = O=C(CN(CC=[*:3])[*:1])[*:2]; aThr = C[C@H](O)[C@H](N)C(=O)O; αMeP = C[C@@]1(C(=O)O)CCCN1; hSer = N[C@@H](CCO)C(=O)O; Ahx = NCCCCCC(=O)O; Mpa = O=C(O)CCS

Legend:
Assay type in all cases: binding
[1] = target: human PCSK9 / human LDLR EGFa domain (Homo sapiens, UniProt Q8NBP7); experiment: TR-FRET assay of inhibition of the PCSK9-LDLR protein-protein interaction; conditions: 20 nM human PCSK9, 20 nM human LDLR EGFa domain, 2 hours room temperature
Summary of the method: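 Readout is the TR-FRET signal between europium anti-6×His on his-tagged LDLR EGFa domain and Ulight streptavidin on biotinylated PCSK9, both proteins at 20 nM and both detection reagents at 5 nM. Incubation lasted 2 hours at room temperature; compounds were run in dose-response with a 4-parameter fit.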

[2] = target: T1, PCSK9 (Homo sapiens, UniProt Q8NBP7); experiment: PCSK9 Alexa FRET Standard assay (displacement of AlexaFluor647 tagged cyclic peptide Reagent A); conditions: 0.5 nM PCSK9, 20 nM AF cyclic peptide Reagent A
T1 construct: biotin (biotinylated)
Method: A solution containing 1 nM biotinylated PCSK9+2.5 nM Lance Streptavidin Europium (Strep-Eu) was made in 50 mM HEPES pH 7.4, 0.15 M NaCl, 5 mM CaCl2), 0.01% BSA, and 0.01% Surfactant P20. A separate solution containing 40 nM of the AlexaFluor tagged cyclic peptide was made in the same buffer system. An Echo was used to transfer 0.750 ul of compound to an assay plate followed by the addition of 15 ul of PCSK9+Stept-Eu and 15 ul of AF peptide. The final assay volume was 30.750 ul containing 0.5 nM PCSK9, 1.25 nM Strep-Eu, and 20 nM AF cyclic peptide. The reaction was incubated at room temperature for at least two hours prior to fluorescence measurements using an Envision Multilabel Reader. IC50 values were determined by fitting data to a sigmoidal dose-response curve using nonlinear regression. Ki was then calculated from the IC50 and the KD of AF cyclic peptide. Counts (B-counts) of the europium-labeled PCSK9 were followed to observe if compounds were […]. A fall off of the B-counts likely indicated a false positive of inhibition. Data from this procedure was reported as “A=‘numerical value’ (nanomolar)”

[3] = target: T1, PCSK9; experiment: PCSK9 Alexa FRET Plus assay (displacement of AlexaFluor647 tagged cyclic peptide Reagent B); conditions: 0.5 nM PCSK9, 960 nM AF cyclic peptide Reagent B
Method: A solution containing 1 nM biotinylated PCSK9+2.5 nM Lance Streptavidin Europium (Strep-Eu) was made in 50 mM HEPES pH 7.4, 0.15 M NaCl, 5 mM CaCl2), 0.01% BSA, and 0.01% Surfactant P20. A separate solution containing 1920 nM of the AlexaFluor tagged cyclic peptide was made in the same buffer system. An Echo was used to transfer 0.075 ul of compound plus 0.675 ul of DMSO to each well of an assay plate followed by the addition of 15 ul of PCSK9+Stept-Eu and 15 ul of AF peptide. The final assay volume was 30.750 ul containing 0.5 nM PCSK9, 1.25 nM Strep-Eu, and 960 nM AF cyclic peptide. The reaction was incubated at room temperature for at least two hours prior to fluorescence measurements using an Envision Multilabel Reader. IC50 values were determined by fitting data to a sigmoidal dose-response curve using nonlinear regression. Ki was then calculated from the IC50 and the KD of AF cyclic peptide. Counts (B-counts) of the europium-labeled PCSK9 were followed to observe if compounds were adversely affecting PCSK9. A fall off of the B-counts likely indicated a false positive of inhibition. Data from this procedure was reported as “P=‘numerical value’ (nanomolar)”

T1 sequence (Q8NBP7 153-692): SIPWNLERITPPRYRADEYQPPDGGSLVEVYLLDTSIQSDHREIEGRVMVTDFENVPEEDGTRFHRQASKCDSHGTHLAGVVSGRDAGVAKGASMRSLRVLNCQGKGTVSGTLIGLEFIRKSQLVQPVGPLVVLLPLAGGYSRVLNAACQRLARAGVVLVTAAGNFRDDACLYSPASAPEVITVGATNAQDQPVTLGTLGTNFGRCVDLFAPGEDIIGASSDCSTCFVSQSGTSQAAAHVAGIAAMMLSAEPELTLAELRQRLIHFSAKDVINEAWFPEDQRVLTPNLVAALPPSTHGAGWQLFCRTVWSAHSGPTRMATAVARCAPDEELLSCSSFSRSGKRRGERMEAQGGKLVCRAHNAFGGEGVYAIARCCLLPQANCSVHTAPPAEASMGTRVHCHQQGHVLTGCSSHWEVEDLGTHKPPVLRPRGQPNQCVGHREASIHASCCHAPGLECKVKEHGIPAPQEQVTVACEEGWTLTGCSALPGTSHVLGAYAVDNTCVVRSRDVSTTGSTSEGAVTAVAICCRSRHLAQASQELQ
Sequence of human PCSK9 / human LDLR EGFa domain (Q8NBP7 153-692): as above

Row | SMILES | IC50 [1] [nM] | IC50 [2] [nM] | IC50 [3] [nM]
1 | C[C@@H]1NC(=O)[C@@H]2CCCN2C(=O)[C@H](Cc2c[nH]c3ccc(F)cc23)NC(=O)[C@H](Cc2c[nH]c3ccc(F)cc23)NC(=O)[C@@H](C)NC(=O)[C@H](CCCCN)NC(=O)CCSC/C=C/CSCCNC(=O)[C@]2(C)CCCN2C(=O)[C@H](Cc2ccc(O)cc2)NC1=O [Compound 045] (cyclo(AY[αMeP][X3]K[dA][Trp(5-F)][Trp(5-F)]P)) | 1 to 100 | 1 to 100 | –
2 | C[C@@H]1NC(=O)[C@@H]2CCCN2C(=O)[C@H](Cc2c[nH]c3ccc(F)cc23)NC(=O)[C@H](Cc2c[nH]c3ccc(F)cc23)NC(=O)[C@@H](C)NC(=O)[C@@H]2CCCN2C(=O)CCSCc2cccc(c2)CSCCNC(=O)[C@@H]2CCCN2C(=O)[C@H](Cc2ccc(O)cc2)NC1=O [Compound 050] (cyclo(AYP[X1]P[dA][Trp(5-F)][Trp(5-F)]P)) | 1 to 100 | 1000 to 12100 | –
3 | COc1ccc(C[C@H]2C(=O)N3CCC[C@H]3C(=O)NCCSCc3cccc(c3)CSCCC(=O)N3CCC[C@H]3C(=O)N[C@H](C)C(=O)N[C@@H](Cc3c[nH]c4ccc(F)cc34)C(=O)N[C@@H](Cc3c[nH]c4ccc(F)cc34)C(=O)N3CCC[C@H]3C(=O)N[C@@H](C)C(=O)N2C)cc1 [Compound 053] (cyclo(A[NMeY](Me)P[X1]P[dA][Trp(5-F)][Trp(5-F)]P)) | 100 to 1000 | 1000 to 12100 | –
4 | C[C@@H]1NC(=O)CCSCc2cccc(c2)CSCCNC(=O)[C@@H]2CCCN2C(=O)[C@H](Cc2ccccc2)N(C)C(=O)[C@H](C)NC(=O)[C@@H]2CCCN2C(=O)[C@H](Cc2c[nH]c3ccc(F)cc23)NC(=O)[C@H](Cc2c[nH]c3ccc(F)cc23)NC(=O)[C@@H](C)NC1=O [Compound 063] (cyclo(A[NMeF]P[X1]A[dA][Trp(5-F)][Trp(5-F)]P)) | 1 to 100 | 1 to 100 | –
5 | C[C@@H]1NC(=O)CCSCc2cccc(c2)CSC[C@@H](C(N)=O)NC(=O)[C@@H]2CCCN2C(=O)[C@H](Cc2ccc(C(F)(F)F)cc2)NC(=O)[C@H](C)NC(=O)[C@@H]2CCCN2C(=O)[C@H](Cc2c[nH]c3ccc(F)cc23)NC(=O)[C@H](Cc2c[nH]c3ccc(F)cc23)NC(=O)[C@@H](C)NC1=O [Compound 084] ([Mpa]A[dA][Trp(5-F)][Trp(5-F)]PA[Phe(4-CF3)]PC-NH2; linker 1-10 via mXylylene) | 100 to 1000 | 1 to 100 | –
6 | COc1ccc(C[C@@H]2NC(=O)[C@H](C)NC(=O)[C@@H]3CCCN3C(=O)[C@H](NC(=O)[C@H](Cc3c[nH]c4ccc(F)cc34)NC(C)=O)Cc3cn(c4ccc(F)cc34)Cc3cn(nn3)-c3cccc(c3)CSCCNC(=O)[C@]3(C)CCCN3C2=O)cc1 [Compound 101] | 1 to 100 | 1 to 100 | –
7 | COc1ccc(C[C@@H]2NC(=O)[C@H](C)NC(=O)[C@@H]3CCCN3C(=O)[C@H](NC(=O)[C@H](Cc3c[nH]c4ccc(F)cc34)NC(=O)[C@@H](C)NC(C)=O)Cc3cn(c4ccc(F)cc34)Cc3cn(nn3)-c3cccc(c3)CSCCNC(=O)[C@]3(C)CCCN3C2=O)cc1 [Compound 102] | 1 to 100 | 1 to 100 | –
8 | C[C@H](O)[C@@H]1NC(=O)CNC(=O)[C@H](CCCCN)NC(=O)CCSCc2cccc(c2)CSC[C@@H](C(N)=O)NC(=O)[C@]2(C)CCCN2C(=O)[C@H](Cc2ccc(O)cc2)NC(=O)[C@H](Cc2cnc[nH]2)NC(=O)[C@H](CC(=O)O)NC(=O)[C@H](Cc2c[nH]c3ccc(F)cc23)NC1=O [Compound 114] ([Mpa]KG[aThr][Trp(5-F)]DHY[αMeP]C-NH2; linker 1-10 via mXylylene) | 100 to 1000 | 100 to 1000 | –
9 | NCCCC[C@@H]1NC(=O)CCSCc2cccc(c2)CSC[C@@H](C(N)=O)NC(=O)[C@@H]2CCCN2C(=O)[C@H](Cc2ccc(O)cc2)NC(=O)[C@H](Cc2cnc[nH]2)NC(=O)[C@H](CCO)NC(=O)[C@H](Cc2c[nH]c3ccc(F)cc23)NC(=O)[C@H](Cc2c[nH]c3ccc(F)cc23)NC(=O)CNC1=O [Compound 117] ([Mpa]KG[Trp(5-F)][Trp(5-F)][hSer]HYPC-NH2; linker 1-10 via mXylylene) | 100 to 1000 | 1 to 100 | –
10 | COc1ccc(C[C@@H]2NC(=O)[C@H](C)NC(=O)CN3C/C=C\COc4cccc(c4)C[C@H](NC(=O)CNC(=O)CCCCCNC(=O)c4ccc(cc4)C[C@@H](C(N)=O)NC(=O)[C@]4(C)CCCN4C2=O)C(=O)N[C@@H](Cc2c[nH]c4ccc(F)cc24)C3=O)cc1 [Compound 121] ([Ahx]G[X6][Trp(5-F)][X7]AY(Me)[αMeP][Phe(4-COOH)]-NH2; staple (Z) 3-5; lactam N-9) | 100 to 1000 | 1 to 100 | –
11 | COc1ccc(C[C@@H]2NC(=O)[C@H](C)NC(=O)CN3CCCC/C=C\CCCN(CC(=O)N[C@@H](Cc4c[nH]c5ccc(F)cc45)C3=O)C(=O)CNC(=O)CCCCCNC(=O)c3ccc(cc3)C[C@@H](C(N)=O)NC(=O)[C@]3(C)CCCN3C2=O)cc1 [Compound 122] ([Ahx]G[X4][Trp(5-F)][X5]AY(Me)[αMeP][Phe(4-COOH)]-NH2; staple (Z) 3-5; lactam N-9) | 1000 to 12100 | 100 to 1000 | –
12 | COc1ccc(C[C@@H]2NC(=O)[C@H](C)NC(=O)CN3CCCCCCCCCN(CC(=O)N[C@@H](Cc4c[nH]c5ccc(F)cc45)C3=O)C(=O)CNC(=O)CCCCCNC(=O)c3ccc(cc3)C[C@@H](C(N)=O)NC(=O)[C@]3(C)CCCN3C2=O)cc1 [Compound 123] | 100 to 1000 | 1 to 100 | –
13 | COc1ccc(C[C@@H]2NC(=O)[C@H](C)NC(=O)CN3CCCCOc4cccc(c4)C[C@H](NC(=O)CNC(=O)CCCCCNC(=O)c4ccc(cc4)C[C@@H](C(N)=O)NC(=O)[C@]4(C)CCCN4C2=O)C(=O)N[C@@H](Cc2c[nH]c4ccc(F)cc24)C3=O)cc1 [Compound 124] | 100 to 1000 | 1 to 100 | –
14 | COc1ccc(C[C@@H]2NC(=O)[C@H]([C@@H](C)O)NC(=O)CN3CCCCCOc4cccc(c4)C[C@@H](NC(=O)[C@@H](C)NC(=O)[C@H](C)NC(=O)CCSCc4cccc(c4)CSCCNC(=O)[C@]4(C)CCCN4C2=O)C(=O)N[C@@H](Cc2c[nH]c4ccc(F)cc24)C3=O)cc1 [Compound 125] | 100 to 1000 | 100 to 1000 | –
15 | COc1ccc(C[C@@H]2NC(=O)[C@H]([C@@H](C)O)NC(=O)CN3CCCCOc4cccc(c4)C[C@H](NC(=O)[C@@H](C)NC(=O)[C@H](C)NC(=O)CCSCc4cccc(c4)CSCCNC(=O)[C@]4(C)CCCN4C2=O)C(=O)N[C@H](Cc2c[nH]c4ccc(F)cc24)C3=O)cc1 [Compound 126] | 1 to 100 | 1 to 100 | –
16 | COc1ccc(C[C@@H]2NC(=O)[C@H](C)NC(=O)[C@@H]3CCC(=O)NCc4cccc(c4)C[C@H](NC(=O)CNC(C)=O)C(=O)N[C@@H](Cc4cn(c5ccc(F)cc45)Cc4cn(nn4)CC[C@@H](C(N)=O)NC(=O)[C@]4(C)CCCN4C2=O)C(=O)N3)cc1 [Compound 127] | 100 to 1000 | 1 to 100 | –
17 | COc1ccc(C[C@@H]2NC(=O)[C@H](C)NC(=O)[C@@H]3CCCN3C(=O)[C@@H]3Cc4cn(c5ccc(F)cc45)Cc4cn(nn4)-c4c(cccc4CSCCC(=O)N[C@H](C)C(=O)NCC(=O)N[C@@H](Cc4c[nH]c5ccc(F)cc45)C(=O)N3)CSCCNC(=O)[C@]3(C)CCCN3C2=O)cc1 [Compound 128] | 100 to 1000 | 1 to 100 | –
18 | COc1ccc(C[C@@H]2NC(=O)[C@H]([C@@H](C)O)NC(=O)[C@@H]3CCCN3C(=O)[C@H]3Cc4cn(c5ccc(F)cc45)Cc4cn(nn4)-c4cc(cc(c4)CSCCC(=O)N[C@@H](C)C(=O)N[C@H](C)C(=O)N[C@@H](Cc4c[nH]c5ccc(F)cc45)C(=O)N3)CSCCNC(=O)[C@]3(C)CCCN3C2=O)cc1 [Compound 129] | 1000 to 12100 | 1000 to 12100 | –
19 | COc1ccc(C[C@@H]2NC(=O)[C@H]([C@@H](C)O)NC(=O)[C@H]3C[C@@H](F)CN3C(=O)[C@H]3Cc4cn(c5ccc(F)cc45)Cc4cn(nn4)-c4cc(cc(c4)CSCCC(=O)N[C@@H](C)C(=O)N[C@H](C)C(=O)N[C@@H](Cc4c[nH]c5ccc(F)cc45)C(=O)N3)CSCCNC(=O)[C@]3(C)CCCN3C2=O)cc1 [Compound 130] | – | 100 to 1000 | 100 to 500
